Data from US10766894B2, “Aza-indazole compounds for use in tendon and/or ligament injuries” (NOVARTIS AG, priority 2016, dated 2020).
Where two headings read alike, the source gives them in different places.

How the values were obtained:
[1] = test system: Scleraxis (Scx) gene expression in rat tail tendon fascicles; test: Ex vivo assay, tendon fascicles, Scleraxis mRNA (qPCR); format: cell-based, Sprague Dawley rat; conditions: 96 h
[2] = test system: collagen type 1 (Col1a2) gene expression in rat tail tendon fascicles; test: Ex vivo assay, tendon fascicles, collagen type 1 mRNA (qPCR); format: cell-based, Sprague Dawley rat; conditions: 96 h
[3] = test system: Tenomodulin (Tnmd) gene expression in rat tail tendon fascicles; test: Ex vivo assay, tendon fascicles, Tenomodulin mRNA (qPCR); format: cell-based, Sprague Dawley rat; conditions: 96 h
[4] = test system: mouse immortalized TT-D6 Scx-luciferase (ScxL) cell line; transcriptional activation of Scleraxis (Scx) gene; test: SCX-LUC in vitro assay (scleraxis promoter luciferase reporter); format: cell-based; conditions: Mus musculus, 96 h
[5] = Rattus norvegicus, read-out: Ex vivo SCX (EC50 uM)
[6] = Rattus norvegicus, read-out: Ex vivo Col1a2 (EC50 uM)
[7] = Rattus norvegicus, read-out: Ex vivo Tnmd (EC50 uM)
[8] = Table 1, TT-D6 Scx-luciferase cells, 1 ng/ml TGFβ1, four days, read-out: Scx-Luc (EC50 uM)
[9] = Examples table, rat tail tendon fascicles, four days, delta-delta Ct, read-out: Ex vivo Scx (EC50 μM)
[10] = Examples table, rat tail tendon fascicles, four days, delta-delta Ct, read-out: Ex vivo Col1a2 (EC50 μM)
[11] = Examples table, rat tail tendon fascicles, four days, delta-delta Ct, read-out: Ex vivo Tnmd (EC50 μM)
[12] = Examples table, TT-D6 Scx-luciferase cells, 1 ng/ml TGFβ1, four days, read-out: Scx-Luc (EC50 μM)

SMILES | EC50 [1, 5] | EC50 [2, 6] | EC50 [3, 7] | EC50 ([4]; read-out: Scx-Luc (EC50 uM)) | EC50 [4, 8] | EC50 [1, 9] | EC50 [2, 10] | EC50 [3, 11] | EC50 [4, 12]
O=C(Nc1nc2cccc(-c3ccc(CN4CCS(=O)(=O)CC4)cc3)n2n1)C1CC1 [reference compound] | 5.34 µM | 5.01 µM | 6.93 µM | 4.32 µM |  |  |  |  | 
O=C(Nc1nc2cccc(-c3ccc(OCc4cccnc4)cc3)n2n1)C1CC1 [reference compound] | 0.36 µM | 0.4 µM | 5.99 µM |  | 0.02 µM |  |  |  | 
CC(=O)N1CCOc2ccc(S(=O)(=O)Nc3ccc(-c4ccc5[nH]nc(N)c5n4)c(Cl)c3)cc21 [Example 86, 4-acetyl-N-(4-(3-amino-1H-pyrazolo[4,3-b]pyridin-5-yl)-3-chlorophenyl)-3,4-dihydro-2H-benzo[b][1,4]oxazine-6-sulfonamide] |  |  |  |  |  | > 10 µM | > 10 µM | 4.86 µM | 5.39 µM
Cc1cc(Nc2nc(N[C@@H](C)c3ncc(F)cn3)ncc2Cl)n[nH]1 [reference compound] | 3.37 µM | 2.61 µM | 3.3 µM |  | 0.008 µM |  |  |  | 
Nc1n[nH]c2ccc(-c3ccc(NS(=O)(=O)c4ccc(Cl)cc4)cc3Cl)nc12 [Example 3, N-(4-(3-amino-1H-pyrazolo[4,3-b]pyridin-5-yl)-3-chlorophenyl)-4-chlorobenzenesulfonamide] |  |  |  |  |  | > 10 µM | 3.08 µM | 1.15 µM | 0.801 µM
Cc1cc(S(=O)(=O)N2CC(O)(C(F)(F)F)C2)ccc1-c1ccc2[nH]nc(N)c2n1 [Example 66, 1-((4-(3-amino-1H-pyrazolo[4,3-b]pyridin-5-yl)-3-methylphenyl)sulfonyl)-3-(trifluoromethyl)azetidin-3-ol] |  |  |  |  |  | 0.89 µM | 0.921 µM | 0.719 µM | 0.794 µM
Nc1n[nH]c2ccc(-c3ccc(S(=O)(=O)NC4CS(=O)(=O)C4)cc3Cl)nc12 [Example 92, 4-(3-amino-1H-pyrazolo[4,3-b]pyridin-5-yl)-3-chloro-N-(1,1-dioxidothietan-3-yl)benzenesulfonamide] |  |  |  |  |  | 4.89 µM | 1.35 µM | 6.28 µM | 0.968 µM
Cc1cc(S(=O)(=O)N(C)[C@H]2C[C@](O)(C(F)(F)F)C2)ccc1-c1ccc2[nH]nc(N)c2n1 [Example 9, 4-(3-amino-1H-pyrazolo[4,3-b]pyridin-5-yl)-N-((1s,3s)-3-hydroxy-3-(trifluoromethyl)cyclobutyl)-N,3-dimethylbenzenesulfonamide] |  |  |  |  |  | 2.27 µM | 0.577 µM | 2.14 µM | 0.46 µM
Cc1cc(S(=O)(=O)N2CC3CCCC3C2)ccc1-c1ccc2[nH]nc(N)c2n1 (centres unmarked) [Example 21, 5-(4-((hexahydrocyclopenta[c]pyrrol-2(1H)-yl)sulfonyl)-2-methylphenyl)-1H-pyrazolo[4,3-b]pyridin-3-amine] |  |  |  |  |  | 4.93 µM | 3.71 µM | 3.51 µM | 0.598 µM
CC[C@@](C)(Nc1ccnc(-c2c[nH]c3ncccc23)n1)C(=O)NCC(F)(F)F [reference compound] | 1.65 µM | 0.88 µM | 1.77 µM | 0.03 µM |  |  |  |  | 
Cc1cc(S(=O)(=O)NC2CC(F)(F)C2)ccc1-c1ccc2[nH]nc(N)c2n1 [Example 8, 4-(3-amino-1H-pyrazolo[4,3-b]pyridin-5-yl)-N-(3,3-difluorocyclobutyl)-3-methylbenzenesulfonamide] |  |  |  |  |  | 0.11 µM | 1.29 µM | 0.261 µM | 0.346 µM
Nc1n[nH]c2ccc(-c3ccc(S(=O)(=O)N[C@H]4C[C@](O)(C(F)(F)F)C4)cc3Cl)nc12 [Example 1] |  |  |  |  |  | 2.11 µM | 1.59 µM | 0.804 µM | 0.183 µM
Nc1n[nH]c2ccc(-c3ccc(S(=O)(=O)N4CC(F)(F)C[C@H]4CO)cc3Cl)nc12 [Example 18, (S)-(1-((4-(3-amino-1H-pyrazolo[4,3-b]pyridin-5-yl)-3-chlorophenyl)sulfonyl)-4,4-difluoropyrrolidin-2-yl)methanol] |  |  |  |  |  | 1.77 µM | 1.83 µM | 0.75 µM | 0.764 µM
Nc1n[nH]c2ccc(-c3ccc(S(=O)(=O)NC4CCCCC4O)cc3Cl)nc12 (centres unmarked) [Example 12, 4-(3-amino-1H-pyrazolo[4,3-b]pyridin-5-yl)-3-chloro-N-(2-hydroxycyclohexyl)benzenesulfonamide] |  |  |  |  |  | 5.79 µM | 4.62 µM | 5.39 µM | 0.765 µM
Nc1n[nH]c2ccc(-c3ccc(S(=O)(=O)NC4CCS(=O)(=O)C4)cc3Cl)nc12 (centres unmarked) [Example 31, 4-(3-amino-1H-pyrazolo[4,3-b]pyridin-5-yl)-3-chloro-N-(1,1-dioxidotetrahydrothiophen-3-yl)benzenesulfonamide] |  |  |  |  |  | 2.31 µM | 2.63 µM | 2.76 µM | 0.411 µM
Nc1n[nH]c2ccc(-c3ccc(S(=O)(=O)N4CC5CC5C4)cc3Cl)nc12 (centres unmarked) [Example 63, 5-(4-(3-azabicyclo[3.1.0]hexan-3-ylsulfonyl)-2-chlorophenyl)-1H-pyrazolo[4,3-b]pyridin-3-amine] |  |  |  |  |  | 2.12 µM | 3.34 µM | 4.6 µM | 1.24 µM
CS(=O)(=O)C1CN(S(=O)(=O)c2ccc(-c3ccc4[nH]nc(N)c4n3)c(Cl)c2)C1 [Example 93, 5-(2-chloro-4-((3-(methylsulfonyl)azetidin-1-yl)sulfonyl)phenyl)-1H-pyrazolo[4,3-b]pyridin-3-amine] |  |  |  |  |  | 2.95 µM | 1.76 µM | 3.52 µM | 5.74 µM
Nc1n[nH]c2ccc(-c3ccc(S(=O)(=O)Nc4ccccc4)cc3Cl)nc12 [Example 38, 4-(3-amino-1H-pyrazolo[4,3-b]pyridin-5-yl)-3-chloro-N-phenylbenzenesulfonamide] |  |  |  |  |  | 0.188 µM | 0.396 µM | 1.89 µM | 0.61 µM
Nc1n[nH]c2ccc(-c3ccc(NS(=O)(=O)Cc4ccccc4)cc3Cl)nc12 [Example 59, N-(4-(3-amino-1H-pyrazolo[4,3-b]pyridin-5-yl)-3-chlorophenyl)-1-phenylmethanesulfonamide] |  |  |  |  |  | > 10 µM | 5.71 µM | 4.61 µM | 4.32 µM
Nc1n[nH]c2ccc(-c3ccc(NS(=O)(=O)c4ccc5c(c4)OCO5)cc3Cl)nc12 [Example 11, N-(4-(3-amino-1H-pyrazolo[4,3-b]pyridin-5-yl)-3-chlorophenyl)benzo[d][1,3]dioxole-5-sulfonamide] |  |  |  |  |  | 3.05 µM | 2.46 µM | 0.841 µM | 0.801 µM
CC(O)(C1CN(S(=O)(=O)c2ccc(-c3ccc4[nH]nc(N)c4n3)c(Cl)c2)CCN1)C(F)(F)F (centres unmarked) [Example 89, 2-(4-((4-(3-amino-1H-pyrazolo[4,3-b]pyridin-5-yl)-3-chlorophenyl)sulfonyl)piperazin-2-yl)-1,1,1-trifluoropropan-2-ol] |  |  |  |  |  | 4.44 µM | 7.27 µM | 5.01 µM | 2.19 µM
Nc1n[nH]c2ccc(-c3ccc(S(=O)(=O)NC4CCS(=O)(=O)CC4)cc3Cl)nc12 [Example 50, 4-(3-amino-1H-pyrazolo[4,3-b]pyridin-5-yl)-3-chloro-N-(1,1-dioxidotetrahydro-2H-thiopyran-4-yl)benzenesulfonamide] |  |  |  |  |  | 2.33 µM | 6.37 µM | 6.3 µM | > 10 µM
Nc1n[nH]c2ccc(-c3ccc(S(=O)(=O)NCCO)cc3Cl)nc12 [Example 72, 4-(3-amino-1H-pyrazolo[4,3-b]pyridin-5-yl)-3-chloro-N-(2-hydroxyethyl)benzenesulfonamide] |  |  |  |  |  | 3.94 µM | 3.28 µM | 3.42 µM | 4.09 µM
N#CC[C@H](C1CCCC1)n1cc(-c2ncnc3[nH]ccc23)cn1 [reference compound] | 3.13 µM | 2.64 µM | 0.74 µM | 0.12 µM |  |  |  |  | 
Cc1cc(S(=O)(=O)Nc2ccccc2)ccc1-c1ccc2[nH]nc(N)c2n1 [Example 16, 4-(3-amino-1H-pyrazolo[4,3-b]pyridin-5-yl)-3-methyl-N-phenylbenzenesulfonamide] |  |  |  |  |  | 3.86 µM | 4.65 µM | 2.81 µM | 0.61 µM
Nc1n[nH]c2ccc(-c3ccc(S(=O)(=O)N[C@@H]4CCC[C@@H]4O)cc3Cl)nc12 [Example 7, 4-(3-amino-1H-pyrazolo[4,3-b]pyridin-5-yl)-3-chloro-N-((1R,2S)-2-hydroxycyclopentyl)benzenesulfonamide] |  |  |  |  |  | 1.6 µM | 2.06 µM | 1.68 µM | 0.305 µM
Nc1n[nH]c2ccc(-c3ccc(NS(=O)(=O)c4ccc5ccccc5c4)cc3Cl)nc12 [Example 82, N-(4-(3-amino-1H-pyrazolo[4,3-b]pyridin-5-yl)-3-chlorophenyl)naphthalene-2-sulfonamide] |  |  |  |  |  | > 10 µM | 7.27 µM | 4.87 µM | 2.61 µM
Cc1cc(NS(=O)(=O)c2cccc(Cl)c2)ccc1-c1ccc2[nH]nc(N)c2n1 [Example 42, N-(4-(3-amino-1H-pyrazolo[4,3-b]pyridin-5-yl)-3-methylphenyl)-3-chlorobenzenesulfonamide] |  |  |  |  |  |  |  |  | 2 µM
CC1CCC(NS(=O)(=O)c2ccc(-c3ccc4[nH]nc(N)c4n3)c(Cl)c2)CC1 (centres unmarked) [Example 36, 4-(3-amino-1H-pyrazolo[4,3-b]pyridin-5-yl)-3-chloro-N-(4-methylcyclohexyl)benzenesulfonamide] |  |  |  |  |  |  |  |  | 0.414 µM
